Holding throughout (assay type): in vivo, C57Bl/6 male mice
The subject of one experiment is IL-1β. Briefly: Serum IL-1β assay (Bio-Plex). The note with it: mice, 0.25, 1.5 or 15 mg/Kg 3 times a week for 2 weeks; optimal response at 1.5 mg/Kg; FIG. 4B. The procedure:
(§1) Twenty 7-weeks old C57Bl/6 male mice (per experiment) were purchased from Harlan Biotech (Jerusalem, Israel). All mice were maintained in the animal facility room at the company facility. The mice were given standard laboratory chow and water ad libitum and kept in a 12-hour light/dark cycle. All animal experiments were carried out in accordance with the guidelines of the Israeli authority for animal experiments for Care and Use of Laboratory Animals and with the authority specific approval.
(§2) Blood was drawn from each mouse and collected separately in a 1.5 ml vial. After 30 min to 1 hr at room temperature, the clotted blood was centrifuged at 300G for 15 minutes at 4° C. The supernatant was collected to a new 1.5 ml vial and centrifuged again at 300G for 15 minutes. The supernatant was collected to a new 1.5 ml vial and frozen at −70° C. for later analysis. When ready for analysis, the blood vials were quickly thawed in a water bath at room temperature, and then centrifuged at 13,000 G for 10 minutes at 4° C. Samples were analyzed according to the Bio-Plex Pro assay instruction manual using a flat bottom black plate.
(§3) Male CS7Bl/6 mice were divided into four groups of 5 mice each. […]
(§4) At the end of the experiment, TNFα and IL-1β were measured in the mice plasma, and the results are presented in FIGS. 4A and 4B, respectively.

For another experiment, the system named is TNFα. Briefly: Serum TNFα assay (Bio-Plex). The note with it: mice, 0.25, 1.5 or 15 mg/Kg 3 times a week for 2 weeks; optimal response at 1.5 mg/Kg; FIG. 4A. The procedure:
as §1, §2, §3, §4

Experiment [1] is described as follows: Glucose tolerance test (GTT) after 2 weeks of treatment. The note with it: mice, 0.25, 1.5 or 15 mg/Kg 3 times a week for 2 weeks; glucose 2 g/Kg i.p., 0-120 min; optimal response at 1.5 mg/Kg; FIG. 1. The procedure: Twenty 7-weeks old C57Bl/6 male mice (per experiment) were purchased from Harlan Biotech (Jerusalem, Israel). All mice were maintained in the animal facility room at the company facility. The mice were given standard laboratory chow and water ad libitum and kept in a 12-hour light/dark cycle. All animal experiments were carried out in accordance with the guidelines of the Israeli authority for animal experiments for Care and Use of Laboratory Animals and with the authority specific approval. At the end of experiment (two weeks) a glucose tolerance test (GTT) was performed. The mice were starved overnight prior to administration of the test. Glucose was injected intraperitoneally (i.p.) (2 g/Kg body weight) and blood glucose levels were measured at time-points 0 min, 15 min, 30 min, 60 min, 90 min and 120 min. Blood glucose was determined by sampling tail vein blood using a standard glucometer. Male C57131/6 mice were divided into four groups of 5 mice each. The control group (Group I) received 5% Mannitol IV (200 μL 3 times a week). Group II received a dose of APC2 (0.25 mg/Kg body weight) 3 times a week. Group III received a dose of APC2 (1.5 mg/Kg body weight) 3 times a week. Group IV received a dose of APC2 (15 mg/Kg body weight) 3 times a week. The mice were treated for 2 weeks. […]

The next experiment concerns GLUT-4. Briefly: GLUT-4 RNA level in splenocytes of treated mice. Conditions: mice, 0.25, 1.5 or 15 mg/Kg 3 times a week for 2 weeks; HPRT control; maximal induction at 1.5 mg/Kg; FIG. 3C. The procedure:
(§5) Mice were sacrificed and dissected. 15-20 mg of appropriate tissue was taken and stabilized in RNA-Save. RNA was extracted from the tissue using an RNeasy mini kit. Homogenization was performed using a 22G needle and syringe. cDNA was prepared from the RNA using EZ-first strand cDNA synthesis kit for RT-PCR. PCR of samples was performed using GoTaq Green Master Mix using appropriate primers (40 cycles, annealing temperature: 62° C.).
(§6) Male C57131/6 mice were divided into four groups of 5 mice each. The control group (Group I) received 5% Mannitol IV (200 μL 3 times a week). Group II received a dose of APC2 (0.25 mg/Kg body weight) 3 times a week. Group III received a dose of APC2 (1.5 mg/Kg body weight) 3 times a week. Group IV received a dose of APC2 (15 mg/Kg body weight) 3 times a week. The mice were treated for 2 weeks.
(§7) At the end of the experiment, the mice were sacrificed, the splenocytes were collected from the different mice groups and the RNA levels of HPRT (control), insulin receptor and GLUT4 were assayed.

Another experiment is described as follows: Plasma glucagon assay. The note with it: mice, 0.25, 1.5 or 15 mg/Kg 3 times a week for 2 weeks; FIG. 2. As for the experimental part: as §1
Mice tail vein was punctured and blood glucose was assayed using a standard glucometer.
as §6
In addition to GTT, the mice plasma glucagon levels were assayed as described in the Methods section.

The next experiment concerns insulin receptor. Briefly: Insulin receptor RNA level in splenocytes of treated mice. The note with it: mice, 0.25, 1.5 or 15 mg/Kg 3 times a week for 2 weeks; HPRT control; maximal induction at 1.5 mg/Kg; FIG. 3B. The procedure:
as §5, §6, §7

This is an account of results in US20140155324A1, “NOVEL PEPTIDES AND USES THEREOF IN THERAPEUTIC METHODS” (TWO TO BIOTECH LTD., priority 2011, published 2014).

With “APC-3: isolated polypeptide of SEQ ID NO. 5, hormone-like protein expressed in human spleen, testis, small intestine, colon and kidney (MSSFCLALEVFHPTVSSGRSRPYQIASLETPVLNYSFHHRR; Homo sapiens APC3)”, in the experiment with IL-1β, the IL-1β levels entry is listed as “reduced both inflammatory cytokines levels in a dose-dependent manner”. For the same substance, the TNFα levels result in the experiment on TNFα is reported as “reduced both inflammatory cytokines levels in a dose-dependent manner”.

“APC-2: isolated polypeptide of SEQ ID NO. 1, hormone-like protein expressed in human heart and lymphocytes (MITSWFSLLPGSQEATATPPFPVVAGRKH; Homo sapiens APC2)”: the “glucose tolerance (blood glucose levels after i.p. glucose)” value in experiment [1] is “improved glucose tolerance in a dose-dependent manner”. Also, in the experiment with GLUT-4, the “GLUT4 RNA levels in splenocytes” value was “up-regulated”. The plasma glucagon levels entry in “Plasma glucagon assay” is “reduced in a dose-dependent manner”. In addition, the “insulin receptor RNA levels in splenocytes” value in the experiment with insulin receptor is reported as “up-regulated”.
